US20170020867A1 (priority 2015, published 2017)
Entries after “also recorded” stand apart in the source; their conditions may differ.

Tests used:
[1] = test system: human cord blood mast cells; settings: cited from earlier work
[2] = test system: C Reactive Protein (CRP) level; test: Phase IIa clinical trial: C Reactive Protein (CRP) level; format: in vivo, human
[3] = test system: patients with moderate to severe active Crohn's disease; settings: human, in vivo
[4] = test system: patients with moderate to severe active Crohn's disease; test: Phase IIa clinical trial: Crohn's Disease Activity Index (CDAI)
[5] = test system: patients with moderate to severe active Crohn's disease; test: Phase IIa clinical trial: corticosteroids decrease; format: in vivo, human; settings: among patients who maintained corticosteroids during the study
Description: Fifteen patients were on corticosteroids prior to study entry.

[6] = test system: patients with moderate to severe active Crohn's disease; test: Phase IIa clinical trial: safety
[7] = week 8, OC dataset, ITT population, All
[8] = week 4, Observed Cases, ITT population
[9] = week 8, Observed Cases, ITT population
[10] = week 8, Observed Cases, ITT population, listed as masitinib
[11] = week 8, patients with CDAI >350 at baseline, ITT population
[12] = week 8, patients with CDAI >350 at baseline, ITT population, listed as masitinib

In the case of `Cc1ccc(NC(=O)c2ccc(CN3CCN(C)CC3)cc2)cc1Nc1nc(-c2cccnc2)cs1` [Masitinib, 4-(4-methylpiperazin-1-ylmethyl)-N-[4-methyl-3-(4-pyridin-3ylthiazol-2-ylamino)phenyl]benzamide], the FcεRI-mediated degranulation [1] is given as “inhibition of FcεRI-mediated degranulation”, the “CRP level change from baseline” value ([2]; patients previously treated with anti-TNF) is given as −30% and the “CRP absolute change, Median” value [2, 7] is given as -19.0 mg/L. The “CRP mean absolute change ± SD” value [2, 7] was -19.7 ± 21.8 mg/L, the death [3] was “no death” and the “patients with a serious adverse event” value ([3]; 8 weeks) was 44%. For the same molecule, the “mean CDAI decrease” value ([4]; 4 weeks after the initiation of treatment) was 80 units, the “additional remission, number of patients” value ([4]; after the first 8-week period) was “one” and the “Complete remission, number of patients” value ([4]; during the first 8-week period) was “two”. The “Complete remission, patients” value ([4]; patient presenting with CDAI>350 at baseline) was 10%, the “CDAI enhanced response (at least 100 pts decrease), patients” value ([4]; week 4, LOCF, ITT population) was 5 (31.3%) and the “CDAI response (at least 70 pts decrease), patients” value ([4]; week 4, LOCF, ITT population) was 8 (50.0%). For the same molecule, the “CDAI enhanced response (at least 100 pts decrease), patients” value [4, 8] was 5 (31.3%), the “CDAI response (at least 70 pts decrease), patients” value [4, 8] was 8 (50.0%) and the “CDAI response (at least 70 pts decrease), patients” value ([4]; week 4, Observed Cases, ITT population, listed as masitinib) was 50%. The “CDAI enhanced response (at least 100 pts decrease), patients” value ([4]; week 8, LOCF, ITT population) was 5 (31.3%), the “CDAI response (at least 70 pts decrease), patients” value ([4]; week 8, LOCF, ITT population) was 7 (43.8%) and the “Mean CDAI absolute change from baseline (SD)” value ([4]; week 8, LOCF, ITT population) was −59.9 (112.2). The “Median CDAI absolute change from baseline” value (“Median CDAI absolute change” below) ([4]; week 8, LOCF, ITT population) was −64.5, the “Mean CDAI absolute change from baseline (SD)” value ([4]; week 8, OC, ITT population) was −86.0 (128.9) and the “Median CDAI absolute change” value ([4]; week 8, OC, ITT population) was −101.0. For the same molecule, the “Mean CDAI absolute change from baseline (SD)” value ([4]; week 8, OC, ITT population, listed as masitinib) was −86, the “CDAI enhanced response (at least 100 pts decrease), patients” value ([4]; week 8, OC, ITT, L1) was “(100.0%)” and the “Mean CDAI absolute change from baseline” value ([4]; week 8, OC, ITT, L1) was −153.0. The “Median CDAI absolute change” value ([4]; week 8, OC, ITT, L1) was −153.0, the “CDAI enhanced response (at least 100 pts decrease), patients” value ([4]; week 8, OC, ITT, L1, listed as masitinib) was 100% and the “CDAI enhanced response (at least 100 pts decrease), patients” value ([4]; week 8, OC, ITT, L2) was “(0.0%)”. The “Mean CDAI absolute change from baseline” value ([4]; week 8, OC, ITT, L2) was −50.0, the “Median CDAI absolute change” value ([4]; week 8, OC, ITT, L2) was −50.0 and the “CDAI enhanced response (at least 100 pts decrease), patients” value ([4]; week 8, OC, ITT, L3) was “(57.1%)”. For the same molecule, the “Mean CDAI absolute change from baseline” value ([4]; week 8, OC, ITT, L3) was −86.7, the “Median CDAI absolute change” value ([4]; week 8, OC, ITT, L3) was −103.0 and the “CDAI enhanced response (at least 100 pts decrease), patients” value ([4]; week 8, OC, ITT, L3, listed as masitinib) was 57%. The “CDAI response (at least 70 pts decrease), patients” value ([4]; week 8, OC, ITT, patients naive or previously treated with corticosteroids (L1)) was “(100.0%)”, the “CDAI response (at least 70 pts decrease), patients” value ([4]; week 8, OC, ITT, patients previously treated with azathioprine (Immurel) or immunotherapy (L2)) was “(50.0%)” and the “CDAI response (at least 70 pts decrease), patients” value ([4]; week 8, OC, ITT, patients previously treated with biological agent (L3)) was “(71.4%)”. For the same molecule, the “CDAI response (at least 70 pts decrease), patients” value ([4]; week 8, OC, ITT, patients previously treated with biological agent (L3), listed as masitinib) was 71%, the “CDAI enhanced response (at least 100 pts decrease), patients” value [4, 9] was 5 (50.0%) and the “CDAI response (at least 70 pts decrease), patients” value [4, 9] was 7 (70.0%). For the same molecule, the “improvement of mean disease activity” value [4, 9] was 23%, the “CDAI enhanced response (at least 100 pts decrease), patients” value [4, 10] was 50% and the “CDAI response (at least 70 pts decrease), patients” value [4, 10] was 70%. The “CDAI absolute change from baseline Mean (SD)” value [4, 11] was −152.3 (78.5), the “CDAI absolute change from baseline, Median” value [4, 11] was −116.5 and the “CDAI enhanced response (at least 100 pts decrease), patients” value [4, 11] was 4 (66.7%). For the same molecule, the “CDAI response (at least 70 pts decrease), patients” value [4, 11] was 6 (100.0%), the “CDAI enhanced response (at least 100 pts decrease), patients” value [4, 12] was 67% and the “CDAI response (at least 70 pts decrease), patients” value [4, 12] was 100%. The “patients whose corticosteroid dose was decreased during study” value [5] was 50%, the tolerability ([6]; 8 weeks of observation, 4.5 or 6 mg/kg/day oral in two daily intakes) was “well tolerated; also recorded: well-tolerated” and the “patients who experienced at least one adverse event (AE)” value ([6]; during the treatment) was 94%. For the same molecule, the “adverse event abdominal pain, patients” value ([6]; human, in vivo) was 22%, the “adverse event asthenia, patients” value ([6]; human, in vivo) was 33% and the “adverse event nausea, patients” value ([6]; human, in vivo) was 28%. The “adverse event vomiting, patients” value ([6]; human, in vivo) was 33%.
